According to patent US8802702B2, “Compounds for reducing drug resistance and uses thereof” (The General Hospital Corporation, priority 2009, dated 2014):
Where two headings read alike, the source gives them in different places.

Columns and labels:
Format in all cases: cell-based, human
[1] = tested on: Pgp1 substrate retention in SKOV-3TR cells; experiment: Fluorescence microscopy of Pgp substrate accumulation
Protocol: FIG. 8 depicts the increase in Pgp1 substrate accumulation in SKOV-3TR by NSC23925. Images of SKOV-3TR cells incubated with various fluorescent substrates of Pgp1 in the presence (bottom panel) and absence (top panel) of NSC23925. For visualization of effects of NSC23925 on the intracellular retention of rhodamine 123, mitoxantrone, Dioc2, doxorobucin, and calcein AM, 10,000 resistant cells were seeded on to Lab-Tek 8-well chamber slides on the day prior to the assay. SKOV-3TR cells were then incubated with either 1 μM rhodamine 123, 10 μM mitoxantrone, 0.1 μM Dioc2, 10 μM doxorubicin or 0.25 μM calcein AM either alone or in the presence of NSC23925 in RPMI 1640 media for one hour at 37° C. Image were acquired a Nikon Eclipse Ti-U fluorescence microscope (Nikon Corp.) equipped with a SPOT RT digital camera (Diagnostic Instruments, Inc., Sterling Heights, Mich.).
For visualization of the effects of NSC23925 on the intracellular retention of calcein AM, doxorubicin, and mitoxantrone, 10,000 resistant cells were seeded on to Lab-Tek 8-well chamber slides on the day prior to the assay. […] Images were acquired by Nikon Eclipse Ti-U fluorescence microscope (Nikon Corp.) equipped with a SPOT RT digital camera (Diagnostic Instruments, Inc., Sterling Heights, Mich.).

[2] = tested on: H69/AR cells (express MRP1, not Pgp1); experiment: Reversal of drug resistance in non-Pgp1 MDR cells expressing MRP1
SKOV-3 and OVCAR8 cells = experiment: Calcein AM drug efflux assay in parental drug-sensitive cells; conditions: SKOV-3 and OVCAR8, do not overexpress Pgp1
Text: The VYBRANT™ multi-drug resistance assay kit (Invitrogen/Molecular Probes) was used to measure drug efflux properties of different resistant cell lines. This assay utilizes the fluorogenic dye calcein acetoxymethyl ester (calcein AM) as a substrate for efflux activity of Pgp1 or other membrane pump ABC proteins. Calcein AM is taken up by cells and hydrolyzed by cytoplasmic esterases to fluorescent calcein. Calcein AM is well retained in the cytosol. However, multi-drug resistant cells expressing high levels of Pgp1 rapidly extrude non-fluorescent calcein AM from the plasma membrane, reducing accumulation of fluorescent calcein in the cytosol. Drug sensitive and resistant cells (3×10^5) were cultured in 96-well plate for 24 hours and then incubated in 0.25 μM calcein AM in 150 μl total volume. After 30 minutes, the cells in plate were washed and centrifuged twice with 200 μl cold RPMI1640 culture medium, and cell fluorescence was measured at a […] on a SPECTRAMAX™ Microplate Spectrofluorometer (Molecular Devices).

[3] = tested on: SKOV-3 and SKOV-3TR cells; experiment: Cytotoxicity of NSC23925 alone (MTT assay), SKOV-3/SKOV-3TR
Protocol: Drug cytotoxicity was determined by MTT assay. […] Cells were treated with the NSC23925 in RPMI1640 complete media at the indicated concentrations. The relative sensitivity of each line to NSC23925 was determined by MTT assay. A: Nonspecific toxicity of NSC23925 on SKOV3 vs SKOV-3TR. B: Nonspecific toxicity of NSC23925 on OVCAR8 vs OVCAR8TR. Drug cytotoxicity was assessed in vitro using the MTT assay. SKOV-3 and SKOV-3TR cells were used herein. Briefly, 2×10^3 cells per well were plated in 96-well plates in culture medium (RPMI 1640 supplemented with 10% fetal bovine serum and penicillin/streptomycin) containing increasing concentrations of drug. […] The resulting formazan product was dissolved with acid-isopropanol and the absorbance at a wavelength of 490 nm (A490) was read on a SPECTRAmax® Microplate Spectrophotometer (Molecular Devices, Sunnyvale, Calif.). The absorbance values were normalized by assigning the value of the control line in the medium without drug to 1.0 and the value of the no cell control to 0. Experiments were performed in triplicate.

[4] = tested on: MCF-7 MX cells (express BCRP, not Pgp1); experiment: Reversal of drug resistance in non-Pgp1 MDR cells expressing BCRP
Text: Dr. Efstathios Gonos (Institute of Biological Research & Biotechnology, Athens, Greece) provided the doxorubicin resistant U-2OS R2 (referred in the text below as U-2OSDR), KHOS R2 cell lines. Dr. Stephen. Howell (The University of California Medical Center, San Diego) provided the cisplatin-resistant ovarian cancer IGROV1cp and 2008 cp70 cell lines. Dr. Erasmus Schneider (Wadsworth Center, Albany) provided the mitoxantrane resistant breast cancer MCF-7/MX cell line. Dr. Katia Scotlandi (Institute Orthopedics Rizzoli, Italy) provided ET-743 resistant TC-ET 6 nM and TC-ET 12 nM cell lines.

KHOSR2 cells = experiment: Reversal of drug resistance, cytotoxicity assay in KHOSR2; conditions: for IC50: Homo sapiens

COc1ccc(-c2cc(C(O)C3CCCCN3)c3ccccc3n2)cc1 (stereo not shown) [NSC23925, (2-(4-methoxyphenyl)quinolin-4-yl)(piperidin-2-yl)methanol]
Fluorescence of SKOV-3TR cells incubated with fluorescent Pgp substrates ([1]; 1 μM NSC23925, one hour at 37° C.): highly fluorescent
Efflux of Pgp1 substrates Rhodamine 123, mitoxantrone, dioc 2 and doxorubicin from SKOV-3TR ([1]; fluorescence): inhibited the efflux
Reversal of drug resistance in H69/AR cells [2]: unable to reverse drug resistance
Effect on accumulation of calcein AM in parental drug-sensitive cells (SKOV-3 and OVCAR8 cells): no evident effect
Cytotoxic effect of NSC23925 alone in parental SKOV-3 ([3]; <5-10 μM NSC23925 alone, cells lack Pgp1): no cytotoxic effect
IC50 ([3]; Homo sapiens, SKOV-3/SKOV-3TR, single agent, read-out: IC50 for NSC23925 (proliferation)): 8000 nM
Effect of verapamil on the cytotoxic effect of NSC23925 ([3]; Pgp1-overexpressing SKOV-3TR cells, 72 hours, MTT): did not influence the cytotoxic effect
Doses at which NSC23925 by itself is noncytotoxic ([3]; both sensitive and resistant cell lines): up to 10 μM
Pgp1 transport substrate status ([3]; concluded from matched cell line IC50s and verapamil co-treatment): not a substrate of Pgp1
Reversal of drug resistance in MCF-7 MX cells [4]: unable to reverse drug resistance
fold-reversal of drug resistance, KHOSR2 (KHOSR2 cells; Doxorubicin, add NSC23925 0.1 μM): (1.4) fold
fold-reversal of drug resistance, KHOSR2 (KHOSR2 cells; Doxorubicin, add NSC23925 0.5 μM): (8.6) fold
fold-reversal of drug resistance, KHOSR2 (KHOSR2 cells; Doxorubicin, add NSC23925 1 μM): (35) fold
fold-reversal of drug resistance, KHOSR2 (KHOSR2 cells; ET-743, add NSC23925 0.1 μM): (1.2) fold
fold-reversal of drug resistance, KHOSR2 (KHOSR2 cells; ET-743, add NSC23925 0.5 μM): (2.1) fold
fold-reversal of drug resistance, KHOSR2 (KHOSR2 cells; ET-743, add NSC23925 1 μM): (3.2) fold
IC50 (KHOSR2 cells; Doxorubicin, add NSC23925 0.1 μM, read-out: KHOSR2 IC50 of Doxorubicin): 7360 ± 336 nM
IC50 (KHOSR2 cells; Doxorubicin, add NSC23925 0.5 μM, read-out: KHOSR2 IC50 of Doxorubicin): 1200 ± 461 nM
IC50 (KHOSR2 cells; Doxorubicin, add NSC23925 1 μM, read-out: KHOSR2 IC50 of Doxorubicin): 292 ± 210 nM
IC50 (KHOSR2 cells; ET-743, add NSC23925 0.1 μM, read-out: KHOSR2 IC50 of ET-743): 145 ± 45 nM
IC50 (KHOSR2 cells; ET-743, add NSC23925 0.5 μM, read-out: KHOSR2 IC50 of ET-743): 83 ± 39 nM
IC50 (KHOSR2 cells; ET-743, add NSC23925 1 μM, read-out: KHOSR2 IC50 of ET-743): 54 ± 34 nM
IC50 (KHOSR2 cells; PM00104, add NSC23925 0.1 μM, read-out: KHOSR2 IC50 of PM00104): 113 ± 38 nM
IC50 (KHOSR2 cells; PM00104, add NSC23925 0.5 μM, read-out: KHOSR2 IC50 of PM00104): 26 ± 14 nM
IC50 (KHOSR2 cells; PM00104, add NSC23925 1 μM, read-out: KHOSR2 IC50 of PM00104): 8 ± 16 nM
IC50 (KHOSR2 cells; Paclitaxel, add NSC23925 0.1 μM, read-out: KHOSR2 IC50 of Paclitaxel): 160 ± 16 nM
IC50 (KHOSR2 cells; Paclitaxel, add NSC23925 0.5 μM, read-out: KHOSR2 IC50 of Paclitaxel): 120 ± 32 nM
IC50 (KHOSR2 cells; Paclitaxel, add NSC23925 1 μM, read-out: KHOSR2 IC50 of Paclitaxel): 60 ± 20 nM
fold-reversal of drug resistance, KHOSR2 (KHOSR2 cells; PM00104, add NSC23925 0.1 μM): (1.3) fold
fold-reversal of drug resistance, KHOSR2 (KHOSR2 cells; PM00104, add NSC23925 0.5 μM): (5.5) fold
fold-reversal of drug resistance, KHOSR2 (KHOSR2 cells; PM00104, add NSC23925 1 μM): (17.9) fold
fold-reversal of drug resistance, KHOSR2 (KHOSR2 cells; Paclitaxel, add NSC23925 0.1 μM): (1.3) fold
fold-reversal of drug resistance, KHOSR2 (KHOSR2 cells; Paclitaxel, add NSC23925 0.5 μM): (1.8) fold
fold-reversal of drug resistance, KHOSR2 (KHOSR2 cells; Paclitaxel, add NSC23925 1 μM): (3.5) fold
